Test results published in patent US5217960A, “Erythromycin derivatives” (priority 1991, dated 1993).
Read-outs that look alike come from different tables or passages of the source.

Columns and labels:
Assay type in all cases: cell-based
[1] = system: STAPHYLOCOCCUS AUREUS CMX 553; assay: In vitro antibacterial activity, agar dilution MIC
[2] = system: STAPHYLOCOCCUS AUREUS A5177; assay: In vitro antibacterial activity, agar dilution MIC; details: S. aureus A5177, BHI agar, 35-37° C., 20 to 24 hours, read-out: MIC
ESCHERICHIA COLI KNK 437 = assay: microbe, parasite or virus in culture; details: E. coli KNK 437, BHI agar, 35-37° C., 20 to 24 hours
[3] = system: PSEUDOMONAS AERUGINOSA A5007; assay: In vitro antibacterial activity, agar dilution MIC; details: P. aeruginosa A5007, BHI agar, 35-37° C., 20 to 24 hours
[4] = system: STAPHYLOCOCCUS AUREUS NCTC 10649; assay: In vitro antibacterial activity, agar dilution MIC
[5] = system: STAPHYLOCOCCUS EPIDERMIDIS 3519; assay: microbe, parasite or virus in culture
ESCHERICHIA COLI H560 = assay: In vitro antibacterial activity, agar dilution MIC
[6] = system: STREPTOCOCCUS PYOGENES 930 CONST; assay: In vitro antibacterial activity, agar dilution MIC
[7] = system: PSEUDOMONAS AERUGINOSA K799/WT; assay: In vitro antibacterial activity, agar dilution MIC; details: P. aeruginosa K799/WT, BHI agar, 35-37° C., 20 to 24 hours
[8] = system: ACINETOBACTER CALCOACETICUS CMX 669; assay: In vitro antibacterial activity, agar dilution MIC; details: A. calcoaceticus CMX 669, BHI agar, 35-37° C., 20 to 24 hours
[9] = system: PROVIDENCIA STUARTII CMX 640; assay: microbe, parasite or virus in culture; details: P. stuartii CMX 640, BHI agar, 35-37° C., 20 to 24 hours
ESCHERICHIA COLI JUHL = assay: microbe, parasite or virus in culture; details: E. coli JUHL, BHI agar, 35-37° C., 20 to 24 hours, read-out: MIC
ESCHERICHIA COLI SS = assay: In vitro antibacterial activity, agar dilution MIC
[10] = system: STAPHYLOCOCCUS AUREUS 642A; assay: In vitro antibacterial activity, agar dilution MIC; details: 24 h
STAPHYLOCOCCUS AUREUS 45 = assay: In vitro antibacterial activity, agar dilution MIC
[11] = system: ENTEROBACTER AEROGENES ATCC 13048; assay: In vitro antibacterial activity, agar dilution MIC; details: Klebsiella aerogenes, ATCC13048; E. aerogenes ATCC 13048; BHI agar, 35-37° C., 20 to 24 hours; read-out: MIC
PSEUDOMONAS CEPACIA 296I = assay: In vitro antibacterial activity, agar dilution MIC; details: Burkholderia cepacia; P. cepacia 296I; BHI agar, 35-37° C., 20 to 24 hours; read-out: MIC
[12] = system: STAPHYLOCOCCUS AUREUS ATCC 6538P; assay: In vitro antibacterial activity, agar dilution MIC; details: ATCC6538P, 24 h
[13] = system: STREPTOCOCCUS PYOGENES 2548 INDUC; assay: In vitro antibacterial activity, agar dilution MIC
[14] = system: PSEUDOMONAS AERUGINOSA BMH10; assay: In vitro antibacterial activity, agar dilution MIC; details: P. aeruginosa BMH10, BHI agar, 35-37° C., 20 to 24 hours, read-out: MIC
[15] = system: KLEBSIELLA PNEUMONIAE ATCC 8045; assay: In vitro antibacterial activity, agar dilution MIC; details: ATCC8045, K. pneumoniae ATCC 8045, BHI agar, 35-37° C., 20 to 24 hours, read-out: MIC
EN[…] ATCC 8043 = assay: In vitro antibacterial activity, agar dilution MIC; details: Enterococcus faecium, ATCC8043, 24 h
Procedure: (§1) Representative compounds of the present invention were assayed in vitro for antibacterial activity as follows: Twelve petri dishes containing successive aqueous dilutions of the test compound mixed with 10 ml of sterilized Brain Heart Infusion (BHI) agar (Difco 0418-01-5) were prepared. Each plate was inoculated with 1:100 (or 1:10 for slow-growing strains, such as Micrococcus and Streptococcus) dilutions of up to 32 different microorganisms, using a Steers replicator block. The inoculated plates were incubated at 35°-37° C. for 20 to 24 hours. In addition, a control plate, using BHI agar containing no test compound, was prepared and incubated at the beginning and end of each test.
(§2) An additional plate containing a compound having known susceptibility patterns for the organisms being tested and belonging to the same antibiotic class as the test compound was also prepared and incubated as a further control, as well as to provide test-to-test comparability. Erythromycin A was used for this purpose.
(§3) After incubation, each disk was read. The minimum inhibitory concentration (MIC) was defined as the lowest concentration of drug yielding no growth, a slight haze, or sparsely isolated colonies on the inoculum spot as compared to the growth control. The results of this assay, shown below in Tables 1 and 2, support the conclusion that the compounds of the invention are effective antibacterial agents.

[16] = system: PSEUDOMONAS AERUGINOSA K799/61; assay: In vitro antibacterial activity, agar dilution MIC
Procedure: as §1, §2, §3

M[…] ATCC 9341 = assay: In vitro antibacterial activity, agar dilution MIC; details: Micrococcus luteus, ATCC9341, 24 h
Procedure: as §1, §2, §3

M[…] ATCC 4698 = assay: In vitro antibacterial activity, agar dilution MIC; details: Micrococcus luteus, ATCC4698, 24 h
Procedure: as §1, §2, §3

STR[…] 508 = assay: In vitro antibacterial activity, agar dilution MIC; details: Streptococcus agalactiae, 24 h
Procedure: as §1, §2
(§4) After incubation, each disk was read. The minimum inhibitory concentration (MIC) was defined as the lowest concentration of drug yielding no growth, a slight haze, or sparsely isolated colonies on the inoculum spot as compared to the growth control.

STR[…] EES61 = assay: In vitro antibacterial activity, agar dilution MIC; details: Streptococcus pyogenes, 24 h
Procedure: as §1, §2, §4

ESCHERICHIA COLI DC-2 = assay: In vitro antibacterial activity, agar dilution MIC; details: E. coli DC-2, BHI agar, 35-37° C., 20 to 24 hours, read-out: MIC
[17] = system: STAPHYLOCOCCUS AUREUS 1775; assay: In vitro antibacterial activity, agar dilution MIC; details: S. aureus 1775, BHI agar, 35-37° C., 20 to 24 hours, read-out: MIC
[18] = system: STREPTOCOCCUS BOVIS A5169; assay: In vitro antibacterial activity, agar dilution MIC

Measured: MIC

CC[C@H]1OC(=O)[C@H](C)[C@@H](O[C@H]2C[C@@](C)(OC)[C@@H](O)[C@H](C)O2)[C@H](C)[C@@H](O[C@@H]2O[C@H](C)C[C@H](N(C)C)[C@H]2O)[C@](C)(O)C[C@@H](C)[C@@H](N)[C@H](C)[C@@H](O)[C@@]1(O)CN [Compound 15, (9R)-9,21-diamino-9-deoxo-erythromycin A]
12.5 µg/mL: [6]; 24 h | [10] | EN[…] ATCC 8043 | M[…] ATCC 4698 | STR[…] 508
50 µg/mL: M[…] ATCC 9341
100 µg/mL: [1]; S. aureus CMX 553, BHI agar, 35-37° C., 20 to 24 hours, read-out: MIC | ESCHERICHIA COLI KNK 437 | [4]; NCTC10649, S. aureus NCTC 10649, BHI agar, 35-37° C., 20 to 24 hours, read-out: MIC | ESCHERICHIA COLI JUHL | STAPHYLOCOCCUS AUREUS 45; S. aureus 45, BHI agar, 35-37° C., 20 to 24 hours, read-out: MIC | PSEUDOMONAS CEPACIA 296I | [17] | [18]; S. bovis A5169, BHI agar, 35-37° C., 20 to 24 hours, read-out: MIC
3.1 µg/mL: ESCHERICHIA COLI DC-2
> 100 µg/mL: [2] | [3] | [5]; S. epidermidis 3519, BHI agar, 35-37° C., 20 to 24 hours, read-out: MIC | ESCHERICHIA COLI H560; E. coli H560, BHI agar, 35-37° C., 20 to 24 hours, read-out: MIC | [7] | [8] | [9] | ESCHERICHIA COLI SS; E. coli SS, BHI agar, 35-37° C., 20 to 24 hours, read-out: MIC | [11] | [13]; S. pyogenes 2548 INDUC, BHI agar, 35-37° C., 20 to 24 hours, read-out: MIC | [14] | [15] | [16]; 24 h
25 µg/mL: [12] | STR[…] EES61

CC[C@H]1OC(=O)[C@H](C)[C@@H](O[C@H]2C[C@@](C)(OC)[C@@H](O)[C@H](C)O2)[C@H](C)[C@@H](O[C@@H]2O[C@H](C)C[C@H](N(C)C)[C@H]2O)[C@](C)(O)C[C@@H](C)[C@@H](N(C)C)[C@H](C)[C@@H](O)[C@H]1CO [Compound 11, (9R)-9-deoxo-9-(N,N-dimethylamino)-21-hydroxyerythromycin B]
12.5 µg/mL: [16]; P. aeruginosa K799/61, BHI agar, 35-37° C., 20 to 24 hours, read-out: MIC
> 100 µg/mL: ESCHERICHIA COLI KNK 437 | [3] | [6]; S. pyogenes 930 CONST, BHI agar, 35-37° C., 20 to 24 hours, read-out: MIC | [7] | [8] | [9] | ESCHERICHIA COLI JUHL | [11] | PSEUDOMONAS CEPACIA 296I | [14] | [15] | ESCHERICHIA COLI DC-2 | [17]
0.39 µg/mL: ESCHERICHIA COLI SS; 24 h | STR[…] EES61
50 µg/mL: ESCHERICHIA COLI H560; 24 h | [13]; 24 h
1.56 µg/mL: EN[…] ATCC 8043
0.78 µg/mL: M[…] ATCC 9341 | M[…] ATCC 4698 | STR[…] 508 | [18]; 24 h
100 µg/mL: [2]
6.2 µg/mL: [1]; 24 h | [4]; NCTC10649, 24 h | [5]; 24 h | [10] | STAPHYLOCOCCUS AUREUS 45; 24 h | [12]
